Assay: xn = mol fraction of the nth substance listed
Settings: 100 kPa

OC[C@H]1O[C@H](O[C@H]2[C@H](O)[C@@H](O)C(O)O[C@@H]2CO)[C@H](O)[C@@H](O)[C@@H]1O (stereo not given in full) + CCCC[n+]1ccn(C)c1.F[P-](F)(F)(F)(F)F + O
viscosity [mPa·s]
Settings | 293.15 K | 298.15 K | 303.15 K | 308.15 K | 313.15 K
x2 = 0, x1 = 0.0001791 | 1.019 | 0.9 | 0.807 | 0.721 | 0.657
x2 = 0, x1 = 0.0005383 | 1.027 | 0.911 | 0.816 | 0.733 | 0.667
x2 = 0, x1 = 0.0008971 | 1.038 | 0.922 | 0.827 | 0.742 | 0.675
x2 = 0, x1 = 0.001255 | 1.049 | 0.931 | 0.832 | 0.747 | 0.68
x2 = 0, x1 = 0.001615 | 1.059 | 0.94 | 0.84 | 0.755 | 0.686
x2 = 0.0001835, x1 = 0.001259 | 1.059 | 0.947 | 0.86 | 0.775 | 0.69
x2 = 0.0001835, x1 = 0.00162 | 1.07 | 0.956 | 0.866 | 0.782 | 0.696
x2 = 0.0001836, x1 = 0.0008988 | 1.049 | 0.937 | 0.851 | 0.768 | 0.684
x2 = 0.0001837, x1 = 0.0001798 | 1.03 | 0.92 | 0.834 | 0.751 | 0.667
x2 = 0.0001837, x1 = 0.0005398 | 1.037 | 0.926 | 0.841 | 0.76 | 0.676
x2 = 0.0005376, x1 = 0.001627 | 1.084 | 0.97 | 0.873 | 0.783 | 0.709
x2 = 0.0005378, x1 = 0.001265 | 1.074 | 0.96 | 0.864 | 0.776 | 0.702
x2 = 0.000538, x1 = 0.0009039 | 1.064 | 0.949 | 0.856 | 0.769 | 0.695
x2 = 0.0005382, x1 = 0.0005419 | 1.052 | 0.939 | 0.846 | 0.76 | 0.688
x2 = 0.0005384, x1 = 0.0001809 | 1.043 | 0.93 | 0.837 | 0.752 | 0.68
x2 = 0.0008951, x1 = 0.001637 | 1.098 | 0.976 | 0.878 | 0.792 | 0.713
x2 = 0.0008955, x1 = 0.001273 | 1.089 | 0.967 | 0.869 | 0.784 | 0.707
x2 = 0.0008958, x1 = 0.0009101 | 1.08 | 0.959 | 0.861 | 0.778 | 0.701
x2 = 0.0008961, x1 = 0.0005458 | 1.064 | 0.946 | 0.851 | 0.768 | 0.693
x2 = 0.0008964, x1 = 0.0001816 | 1.057 | 0.938 | 0.842 | 0.761 | 0.685
x2 = 0.00126, x1 = 0.0009162 | 1.084 | 0.969 | 0.876 | 0.79 | 0.708
x2 = 0.00126, x1 = 0.001282 | 1.096 | 0.979 | 0.883 | 0.797 | 0.714
x2 = 0.00126, x1 = 0.001648 | 1.106 | 0.989 | 0.893 | 0.804 | 0.721
x2 = 0.001261, x1 = 0.000183 | 1.061 | 0.948 | 0.858 | 0.774 | 0.693
x2 = 0.001261, x1 = 0.0005491 | 1.071 | 0.959 | 0.866 | 0.781 | 0.7

— the CheMixHub ionic liquid set
